Measurements taken from publication PMC9320628, “Analysis of Structural Determinants of Peptide MS 9a-1 Essential for Potentiating of TRPA1 Channel” (Marine Drugs, 2022).
Like-named read-outs stand apart in the source and are kept apart here. Where a SMILES comes first, the peptide text is derived from it. Bridges are numbered along the chain shown (N, C = ends).

How the values were obtained:
[1] = molecular target: T1, rat TRPA1 (Q6RI86) channel (Rattus norvegicus, UniProt Q6RI86); assay: Potentiation of diclofenac-induced TRPA1 currents, two-electrode recordings in Xenopus laevis oocytes; assay type: cell-based; conditions: for Maximal potentiating effect lower than that of Ms 9a-1: compared to Ms 9a-1, inward and outward currents; for Diclofenac-induced inward current potentiated up to (maximal, % of control) / EC50 / Diclofenac-induced outward current potentiated up to (maximal, % of control): oocytes expressing rat TRPA1, diclofenac 300 μM; for EC50: Ca2+-free solution, 22–24 °C, mean ± SD of 4–7 measurements, SD
T1 construct: expressed in transfected cells; host or cells: Xenopus laevis oocytes injected with cRNA
Experimental: Peptide activity was measured in Xenopus laevis oocytes, heterologously expressing the TRPA1 channel (Figure 2 and Figure S2). Recordings occurred in repeated 4 s pulses of voltage ramp from −100 mV to 100 mV over 200 ms, whereby inward current was measured at −100 mV and outward at 100 mV.
Oocytes expressing rat TRPA1 (Q6RI86) channel were prepared as described previously. Experiments were approved by the Institutional Animal Care and Use Committee (IACUC) of the Shemyakin–Ovchinnikov Institute of Bioorganic Chemistry Russian Academy of Sciences (Protocol Number 267/2018; date of approval: 28 February 2019). Female frogs were anaesthetized with 0.17% solution of tricaine methane sulfonate (MS222) and oocytes were surgically removed. cRNA was synthesized using a HiScribe™ T7 High Yield RNA Synthesis Kit (New England Biolabs, Ipswich, MA, USA) according to the manufacturers’ protocol for capped transcripts and then injected in X. laevis oocytes. The oocytes were kept for 2–7 days at 16–17 °C in sterile ND-96 medium (96 mM NaCl, 2 mM KCl, 1.8 mM CaCl2, 1 mM MgCl2, 5 mM HEPES, pH 7.4) supplemented with 50 μg/mL gentamycin. Electrophysiological recordings were carried out at room temperature (22–24 °C) in Ca^2+-free solution (96 mM NaCl, 2 mM KCl, 1 mM MgCl2, 5 mM HEPES, pH 7.4) using the GeneClamp500 amplifier (Axon Instruments, Union City, CA, USA) at a holding potential of −50 mV. The data were filtered at 20 Hz and digitized at 100 Hz by an AD converter L780 (LCard, Moscow, Russia) using in-house software. Oocytes were impaled with two glass microelectrodes filled with 3 M KCl. Inward/outward currents were recorded at repeated every 4 seconds a stimuli comprising step from holding potential to −100 mV for 80 ms followed by voltage ramp from −100 mV to +100 mV for 200 ms and final step to holding potential. Diclofenac (300 μM in Ca^2+-free solution) was used to activate the channel.

TRPA1-expressing oocytes = conditions: cited from earlier work
Experimental: Oocytes expressing rat TRPA1 (Q6RI86) channel were prepared as described previously. Experiments were approved by the Institutional Animal Care and Use Committee (IACUC) of the Shemyakin–Ovchinnikov Institute of Bioorganic Chemistry Russian Academy of Sciences (Protocol Number 267/2018; date of approval: 28 February 2019). Female frogs were anaesthetized with 0.17% solution of tricaine methane sulfonate (MS222) and oocytes were surgically removed. cRNA was synthesized using a HiScribe™ T7 High Yield RNA Synthesis Kit (New England Biolabs, Ipswich, MA, USA) according to the manufacturers’ ...

[2] = cited from earlier work
Excerpt: We compared the efficacy of peptides Ms 9a-1, C-Ms, N-Ms, Ms 9a-2, and Ms 9a-3 in models of AITC- ...

[3] = inward current at −100 mV, read-out: EC50 of potentiation of diclofenac-induced inward TRPA1 current
[4] = outward current at +100 mV, read-out: EC50 of potentiation of diclofenac-induced outward TRPA1 current

T1 sequence (Q6RI86 whole entry): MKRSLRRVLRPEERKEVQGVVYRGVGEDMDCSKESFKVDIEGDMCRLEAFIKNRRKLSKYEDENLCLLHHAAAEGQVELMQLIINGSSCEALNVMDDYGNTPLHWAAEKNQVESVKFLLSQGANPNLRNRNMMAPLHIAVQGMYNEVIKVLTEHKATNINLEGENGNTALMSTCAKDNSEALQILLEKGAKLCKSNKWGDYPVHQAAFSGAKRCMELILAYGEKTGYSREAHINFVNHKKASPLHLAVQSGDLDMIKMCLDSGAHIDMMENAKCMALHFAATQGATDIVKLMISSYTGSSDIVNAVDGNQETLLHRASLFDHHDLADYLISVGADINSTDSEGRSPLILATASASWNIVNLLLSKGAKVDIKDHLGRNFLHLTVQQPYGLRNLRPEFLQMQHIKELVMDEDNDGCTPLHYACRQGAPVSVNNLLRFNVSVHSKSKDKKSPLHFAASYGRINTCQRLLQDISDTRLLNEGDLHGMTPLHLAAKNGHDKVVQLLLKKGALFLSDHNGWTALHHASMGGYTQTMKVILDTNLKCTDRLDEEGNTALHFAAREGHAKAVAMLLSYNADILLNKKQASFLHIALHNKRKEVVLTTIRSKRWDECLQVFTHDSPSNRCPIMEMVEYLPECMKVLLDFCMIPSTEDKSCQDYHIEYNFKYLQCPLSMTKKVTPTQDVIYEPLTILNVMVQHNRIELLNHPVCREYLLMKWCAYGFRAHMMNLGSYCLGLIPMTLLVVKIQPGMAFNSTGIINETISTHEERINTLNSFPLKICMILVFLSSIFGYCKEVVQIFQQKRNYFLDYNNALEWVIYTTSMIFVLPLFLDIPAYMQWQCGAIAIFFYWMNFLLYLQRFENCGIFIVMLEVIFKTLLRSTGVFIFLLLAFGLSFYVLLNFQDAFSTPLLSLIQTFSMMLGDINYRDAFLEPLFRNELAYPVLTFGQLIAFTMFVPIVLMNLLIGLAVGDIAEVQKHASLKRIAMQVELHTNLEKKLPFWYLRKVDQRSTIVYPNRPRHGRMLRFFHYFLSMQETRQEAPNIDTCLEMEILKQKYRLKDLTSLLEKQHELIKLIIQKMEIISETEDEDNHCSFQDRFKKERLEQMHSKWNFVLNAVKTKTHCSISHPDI

For `CC[C@H](C)[C@@H]1NC(=O)[C@H](CCCNC(=N)N)NC(=O)[C@H](C(C)C)NC(=O)[C@@H]2CSSC[C@H](NC(=O)CNC(=O)CNC(=O)[C@@H](NC(=O)[C@@H](NC(=O)[C@@H](NC(=O)[C@@H](N)CC(N)=O)[C@@H](C)CC)[C@@H](C)CC)C(C)C)C(=O)N[C@@H](CO)C(=O)N[C@@H](CCCCN)C(=O)N[C@@H](CSSC[C@@H](C(=O)NCC(=O)N[C@H](C(=O)O)C(C)C)NC(=O)CNC(=O)[C@H](C)NC1=O)C(=O)N[C@@H](Cc1c[nH]cn1)C(=O)N[C@@H]([C@@H](C)O)C(=O)N[C@@H](CCC(=O)O)C(=O)N[C@@H](CC(=O)O)C(=O)N[C@@H](CO)C(=O)N[C@@H](CC(N)=O)C(=O)NCC(=O)N[C@@H](CC(N)=O)C(=O)N2` [Ms 9a-3] (H-NIIVGGCSKCHTEDSNGNCVRIAGCGV-OH; disulfide 7-19, 10-25), the “Maximal potentiating effect lower than that of Ms 9a-1” value [1] was 15–30%, the “Diclofenac-induced inward current potentiated up to (maximal, % of control)” value ([1]; inward current at −100 mV) was 159% and the EC50 [1, 3] was 5.44 ± 2.9 µM. The “Diclofenac-induced outward current potentiated up to (maximal, % of control)” value ([1]; outward current at +100 mV) was 175% and the EC50 [1, 4] was 7.8 ± 0.6 µM.
In the case of `CC[C@H](C)[C@@H]1NC(=O)[C@H](CCCNC(=N)N)NC(=O)[C@H](C(C)C)NC(=O)[C@@H]2CSSC[C@H](NC(=O)CNC(=O)CNC(=O)[C@@H](NC(=O)[C@@H](NC(=O)[C@@H](NC(=O)[C@@H](N)CC(N)=O)[C@@H](C)CC)[C@@H](C)CC)C(C)C)C(=O)N[C@@H](CO)C(=O)N[C@@H](CCCCN)C(=O)N[C@@H](CSSC[C@@H](C(=O)NCC(=O)N[C@H](C(=O)O)C(C)C)NC(=O)CNC(=O)[C@H](C)NC1=O)C(=O)N[C@@H](Cc1c[nH]cn1)C(=O)N[C@@H](CCCCN)C(=O)N[C@@H](CCC(N)=O)C(=O)N[C@@H](CC(=O)O)C(=O)N[C@@H](CO)C(=O)N[C@@H](CO)C(=O)NCC(=O)N[C@@H](CC(N)=O)C(=O)N2` [Ms 9a-2] (H-NIIVGGCSKCHKQDSSGNCVRIAGCGV-OH; disulfide 7-19, 10-25), the “Maximal potentiating effect lower than that of Ms 9a-1” value [1] is reported as 45–50%, the “Increase of effective concentration (EC50) for inward current compared to Ms 9a-1” value ([1]; inward current, relative to Ms 9a-1) is reported as 3 times and the “Diclofenac-induced inward current potentiated up to (maximal, % of control)” value ([1]; inward current at −100 mV) is reported as 139%. The EC50 [1, 3] was 0.412 ± 0.048 µM, the “Diclofenac-induced outward current potentiated up to (maximal, % of control)” value ([1]; outward current at +100 mV) was 131% and the EC50 [1, 4] was 0.606 ± 0.201 µM.
In the case of `O=C(O)Cc1ccccc1Nc1c(Cl)cccc1Cl` [Diclofenac], the EC50 (TRPA1-expressing oocytes; X. laevis oocytes, read-out: EC50 of current increase in TRPA1-expressing oocytes) is listed as 210 µM and the “Effect on uninjected oocytes of X. laevis” value (TRPA1-expressing oocytes; uninjected oocytes) is listed as “no effect”.
With `CC[C@H](C)[C@@H]1NC(=O)[C@@H](NC(=O)CNC(=O)CNC(=O)[C@@H](NC(=O)[C@@H](NC(=O)[C@@H](NC(=O)[C@@H](N)CC(N)=O)[C@@H](C)CC)[C@@H](C)CC)C(C)C)CSSC[C@@H]2NC(=O)[C@H](CCCNC(=N)N)NC(=O)CNC(=O)[C@H](CO)NC(=O)[C@H](C)NC(=O)[C@H](CC(N)=O)NC(=O)[C@H](CCCCN)NC(=O)[C@H](C(C)C)NC(=O)[C@H](Cc3c[nH]cn3)NC(=O)[C@H](CSSC[C@@H](C(=O)NCC(=O)N[C@H](C(=O)N[C@@H](CC(=O)O)C(=O)N[C@@H](CCCCN)C(=O)N[C@H](C(=O)N3CCC[C@H]3C(=O)N[C@@H](CC(=O)O)C(=O)N[C@@H](CC(C)C)C(=O)N[C@@H](Cc3ccccc3)C(=O)N[C@@H](CO)C(=O)O)C(C)C)C(C)C)NC(=O)CNC(=O)[C@H](C(C)C)NC(=O)[C@H]([C@@H](C)CC)NC(=O)[C@H](CCCNC(=N)N)NC(=O)[C@H](C(C)C)NC2=O)NC(=O)[C@H](CCCCN)NC1=O` [Ms 9a-1] (H-NIIVGGCIKCHVKNASGRCVRIVGCGVDKVPDLFS-OH; disulfide 7-19, 10-25) the “Diclofenac-induced inward current potentiated up to (maximal, % of control)” value ([1]; inward current at −100 mV) was 190%, the EC50 [1, 3] was 0.21 ± 0.003 µM and the “Diclofenac-induced outward current potentiated up to (maximal, % of control)” value ([1]; outward current at +100 mV) was 175%. The EC50 [1, 4] was 0.032 ± 0.007 µM and the “Pain or thermal hyperalgesia caused in vivo” value [2] was “does not cause pain or thermal hyperalgesia”.
